Test: ratings of trustworthiness and attractiveness of unfamiliar faces (FIG. 3)
Assay type: in vivo, human
Conditions: people under the influence of the hormone compared to control groups who were not
Excerpt: As has been explained, the first set 14 of active ingredients create a reaction in the body that induces the production of hormones and/or pheromones. Hormones, such as oxytocin and its kind promote improved social behavior and enhances positive social perceptions of others. […] Oxytocin also masks negative personality perceptions that masculinized faces tend to elicit.

CC[C@H](C)[C@@H]1NC(=O)[C@H](Cc2ccc(O)cc2)NC(=O)[C@@H](N)CSSC[C@@H](C(=O)N2CCC[C@H]2C(=O)N[C@@H](CC(C)C)C(=O)NCC(N)=O)NC(=O)[C@H](CC(N)=O)NC(=O)[C@H](CCC(N)=O)NC1=O [oxytocin]
ratings of "trustworthiness" and "attractiveness" of unfamiliar faces: higher ratings

From patent publication US20250367106A1, “Topical Formulation for Improving Skin Quality and Inducing the Release of Oxytocin” (OX Technology IP LLC, priority 2024, published 2025)
